Entries after “also recorded” stand apart in the source; their conditions may differ. Like-named read-outs stand apart in the source and are kept apart here.
Tests used:
[1] = test system: A2780 (ovarian carcinoma); test: MTT cytotoxicity assay, A2780; details: read-out: EC50 A2780
Protocol: (§1) Human ovarian carcinoma cells A2780 and A2780cisR, and human breast adenocarcinoma MDA-MB-231 cells, murine hepatocytes TAMH and human cardiomyocytes AC10 were obtained from ATCC. […] The stock of cisplatin was commercially available clinical grade solution in saline buffer.
(§2) Inhibition of cell viability assay. The cytotoxicity of the compounds was determined by colorimetric MTT assay. The cells were harvested from culture flasks by trypsinization and seeded into Cellstar 96-well microculture plates at the seeding density of 6000 cells per well (6×10^4 cells/mL). TAMH and AC10 cells were seeded at 12000 and 5000 cells per well, respectively. After cells were allowed to resume exponential growth for 24 hours, they were exposed to drugs at different concentrations in media for 72 hours. The drugs were diluted in complete medium at the desired concentration and added to each well (100 μL) and serially diluted to other wells. After exposure for 72 hours, the media was replaced with MTT in media (5 mg/mL, 100 μL) and incubated for additional 45 minutes. Subsequently, the medium was aspirated and the purple formazan crystals formed in viable cells were dissolved in DMSO (100 μL). Optical densities were measured at 570 nm using the BioTek H1 Synergy microplate reader. […] Evaluation was based on means from at least three independent experiments, each comprising six replicates per concentration level.

MDA-MB-231 cells [2] = test: Annexin V/PI apoptosis assay; details: MDA-MB-231, 24 hours, equipotent concentrations
Protocol: Annexin V/PI apoptosis assay. MDA-MB-231 cells were seeded into Cellstar 12-well plates (Greiner Bio-One) at a density of 20×10^4 cells/well (1 mL per well). […] After the supernatant solution was collected in 1.5 mL microtubes, the cells were washed with 100 μl of trypsin, which was combined with the supernatant. Subsequently, cells were trypsinized with 200 μl trypsin for 5 minutes at 37° C., 5% CO2, washed with 200 μl of PBS and combined with the supernatant. The cells were centrifuged at 2.5×10^3 rpm for 5 minutes and the pellets were washed once with PBS and resuspended in 500 μl of Annexin V binding buffer and stained with Annexin V-FITC and PI reagents. The fluorescence was immediately analyzed by flow cytometry. The resulting dot blots were acquired from 10000 events and quantified using Flowjo software (Flowjo LLC, Ashland, Oreg., USA).
MDA-MB-231 cells were treated with the compounds of interest at equipotent concentrations, corresponding to their IC50 values (FIG. 57).

[3] = test system: A2780cisR (ovarian carcinoma); test: MTT cytotoxicity assay, A2780cisR; details: for RF (Resistance Factor): IC50 (A2780cisR)/IC50 (A2780); for EC50: read-out: EC50 A2780cisR
Protocol: as §1, §2

[4] = test system: MDA-MB-231 (breast adenocarcinoma); test: MTT cytotoxicity assay, MDA-MB-231; details: for EC50: read-out: EC50 MDA-MB-231
Protocol: as §1, §2

MDA-MB-231 cells [5] = test: Cellular accumulation of Au by ICP-MS; details: ICP-MS after 24 hour exposure at 1.4 μM
Protocol: Cellular accumulation of Au complexes was determined in MDA-MB-231 cells. Cells were seeded into Cellstar 6-well plates (Greiner Bio-one) at a density of 60×10^4 cells/well (2 mL per well). After the cells were allowed to resume exponential growth for 24 hours, they were exposed to compounds of interest at various concentrations for 24 hours at 37° C. The cells were washed twice with 1 mL of PBS and lysed with RIPA lysis buffer for 5-10 min at 4° C. The cell lysates were scraped from the wells and transferred to separate 1.5 mL microtubes. The supernatant was then collected after centrifugation (13000 rpm, 4° C. for 15 minutes) and total protein content of each sample was quantified via Bradford's assay. […] The resulting solution was diluted to 1 mL (2-4% v/v HNO3) with ultrapure Milli-Q water. Au content of each sample was quantified by ICP-MS. Re was used as an internal standard. […] Metal standards for calibration curve (0, 0.5, 1, 2, 5, 10, 20, 40 ppb) were freshly prepared before each measurement. All readings were made in triplicates in He mode.

[6] = test system: AC10 (human ventricular cardiomyocytes); test: MTT toxicity assay in cardiomyocytes AC10
Protocol: (§3) Cell lines and culture conditions. Human ovarian carcinoma cells A2780 and A2780cisR, and human breast adenocarcinoma MDA-MB-231 cells, murine hepatocytes TAMH and human cardiomyocytes AC10 were obtained from ATCC.
Inhibition of cell viability assay. The cytotoxicity of the compounds was determined by colorimetric MTT assay. The cells were harvested from culture flasks by trypsinization and seeded into Cellstar 96-well microculture plates at the seeding density of 6000 cells per well (6×10^4 cells/mL). TAMH and AC10 cells were seeded at 12000 and 5000 cells per well, respectively. After cells were allowed to resume exponential growth for 24 hours, they were exposed to drugs at different concentrations in media for 72 hours. The drugs were diluted in complete medium at the desired concentration and added to each well (100 μL) and serially diluted to other wells. After exposure for 72 hours, the media was replaced with MTT in media (5 mg/mL, 100 μL) and incubated for additional 45 minutes. Subsequently, the medium was aspirated and the purple formazan crystals formed in viable cells were dissolved in DMSO (100 μL). Optical densities were measured at 570 nm using the BioTek H1 Synergy microplate reader. […] Evaluation was based on means from at least three independent experiments, each comprising six replicates per concentration level. For experiments with inhibitors, MDA-MB-231 cells were seeded at the seeding density of 8000 cells per well (8×10^4 cells/mL).

[7] = Reactivity towards glutathione, ligand release (HR-MS, UV-vis); format: physicochemical; details: with GSH; HR-MS and UV-vis
Source text: NMR- and MS-based stability studies.
Intriguingly, the reactivity of Au^III-metformin complexes towards GSH was drastically different despite their similar structures.

rat liver TrxR = target: T1, rat liver TrxR (Rattus norvegicus, UniProt O89049); test: Thioredoxin reductase inhibition, DTNB reduction assay
T1 sequence (O89049 1-499): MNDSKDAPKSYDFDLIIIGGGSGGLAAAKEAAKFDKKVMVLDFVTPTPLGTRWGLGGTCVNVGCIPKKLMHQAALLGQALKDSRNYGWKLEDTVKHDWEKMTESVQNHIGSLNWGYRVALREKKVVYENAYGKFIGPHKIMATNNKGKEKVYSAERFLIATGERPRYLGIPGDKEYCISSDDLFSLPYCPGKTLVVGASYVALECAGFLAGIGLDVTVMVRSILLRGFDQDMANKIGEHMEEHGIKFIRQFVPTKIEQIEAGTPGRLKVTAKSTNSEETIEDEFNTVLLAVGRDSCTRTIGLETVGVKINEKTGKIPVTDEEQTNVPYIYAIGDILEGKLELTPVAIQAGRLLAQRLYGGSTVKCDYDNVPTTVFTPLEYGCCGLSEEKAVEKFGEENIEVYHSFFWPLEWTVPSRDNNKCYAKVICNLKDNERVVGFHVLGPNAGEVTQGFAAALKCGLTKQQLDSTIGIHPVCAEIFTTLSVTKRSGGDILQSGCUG
Protocol: Thioredoxin reductase inhibition assay. Assay was performed according to the protocol provided by the manufacturer. […] Compounds of interest were serially diluted at the separate 96-well plate and 4 μl of each concentration was added to the appropriate wells. The reaction mixture was incubated with gentle shaking (room temperature, 30 minutes). Subsequently, 6 μl of DNTB (100 mM) was added and incubated for an additional 3 minutes.
Compounds of interest at six different concentrations were incubated with the isolated rat liver TrxR enzyme in the presence of NADPH for 30 minutes, followed by 2 minutes incubation with the DNTB reagent.

[8] = Stability in ammonium carbonate buffer by high resolution ESI-MS; details: ammonium carbonate buffer pH 7.4, 37° C., 1, 3 and 24 hours
Protocol: NMR and mass spectrometric (MS) methods were employed to characterize the stability of Au complexes in DMSO and aqueous media. ^1H NMR stability studies were performed over the period of 6-10 days in d^6-DMSO and D2O (1met*).

[9] = test system: MDA-MB-231 (breast adenocarcinoma)
Protocol: as §1, §2

MDA-MB-231 tumors = details: 250 mg/kg; cited from earlier work
[10] = test system: AMPK-mTOR energy signaling pathway; details: MDA-MB-231, 0.5×-2×EC50, 2, 6, 24 hours
Protocol: Western blotting. MDA-MB-231 cells were seeded into Cellstar 6-well plates (Greiner Bio-One) at a density of 60×10^4 cells/well (2 mL per well). After the cells were allowed to resume exponential growth for 24 hours, they were exposed to compounds of interest at various concentrations for 2, 6 and 24 hours. The cells were washed twice with PBS and lysed with RIPA buffer (50-100 μL) and kept for 5-10 minutes at 4° C. The samples were sonicated in ice bath (3 times for 30 seconds). […] Equal quantities of protein (50 μg) were reconstituted in loading buffer (5× Laemmli Buffer with 5% DTT) and heated at 100° C. for 10 minutes. […] The protein bands were visualised with Ponceau S stain solution and the nitrocellulose membranes were cut into strips based on the protein ladder. The membranes were washed with a TBS-T wash buffer (0.1% Tween-20 in 1×PBS) 3 times for 5 minutes. Subsequently, they were blocked in 5% BSA (w/v) in wash buffer for 1 hour and incubated with the appropriate primary antibodies in 5% BSA (w/v) in wash buffer at 4° C. overnight. The membranes were washed with a wash buffer 3 times for 7 minutes. […] Immune complexes were detected with Luminata HRP substrates and analysed using enhanced chemiluminescence imaging. […]

[11] = test system: TAMH (transforming growth factor-a transgenic mouse hepatocytes); test: MTT toxicity assay in hepatocytes TAMH; details: read-out: EC50 TAMH, exposure time 72 hours
Protocol: as §3
Inhibition of cell viability assay. The cytotoxicity of the compounds was determined by colorimetric MTT assay. The cells were harvested from culture flasks by trypsinization and seeded into Cellstar 96-well microculture plates at the seeding density of 6000 cells per well (6×10^4 cells/mL). TAMH and AC10 cells were seeded at 12000 and 5000 cells per well, respectively. After cells were allowed to resume exponential growth for 24 hours, they were exposed to drugs at different concentrations in media for 72 hours. The drugs were diluted in complete medium at the desired concentration and added to each well (100 μL) and serially diluted to other wells. After exposure for 72 hours, the media was replaced with MTT in media (5 mg/mL, 100 μL) and incubated for additional 45 minutes. Subsequently, the medium was aspirated and the purple formazan crystals formed in viable cells were dissolved in DMSO (100 μL). Optical densities were measured at 570 nm using the BioTek H1 Synergy microplate reader. […] Evaluation was based on means from at least three independent experiments, each comprising six replicates per concentration level. […]

[12] = MTT assay, exposure time 72 hours

Protocol for Cyclic voltammetry: Cyclic voltammetry and spectroelectrochemistry. Cyclic voltammetry experiments with approximately 0.5 mM solutions of investigated gold complexes in 0.1 M nBu4NPF6 supporting electrolyte in dimethylsulphoxide (DMSO) or in pH 7 buffered solutions were performed under argon atmosphere using a three-electrode arrangement with glassy carbon 1 mm disc working electrode (from lonode, Australia), platinum wire as counter electrode, and silver wire as pseudo-reference electrode. Ferrocene (Fc) served as the internal potential standard for DMSO and potassium hexacyanoferrate(II) for aqueous solutions. […] The cell was positioned in the CUV-UV Cuvette Holder (Ocean Optics) connected to the diode-array UV-vis-NIR spectrometer by optical fibres. UV-vis-NIR spectra were processed using the AvaSoft 7.7 software package. Halogen and deuterium lamps were used as light sources (Avantes, Model AvaLight-DH-S-BAL).

In the case of [Cl][Au-]1([Cl])[c]2ccccc2-c2cccc[n+]21 [Compound 1, (2-phenylpyridine)AuCl2], the EC50 [1, 12] is reported as 2 ± 0.4 µM, the apoptotic cell population (MDA-MB-231 cells [2]) is reported as “significantly higher” and the “RF (Resistance Factor)” value [3] is reported as 2. For the same compound, the EC50 [3, 12] was 4 ± 0.8 µM, the EC50 [4, 12] was 7.8 ± 1.7 µM and the “Cellular accumulation MDA-MB-231” value (MDA-MB-231 cells [5]) was 0.36 ± 0.10 nmol Au/mg protein.

Work on [H]/N=C(/N)N/C(=N/[H])NCCc1ccccc1 [Phenformin] yielded an EC50 ([1]; Homo sapiens, A2780, 72 h) of 104 ± 21 µM, an EC50 ([3]; Homo sapiens, A2780cisR, 72 h) of 246 ± 24 µM and an EC50 ([4]; Homo sapiens, MDA-MB-231, 72 h) of 608 ± 23 µM.

COc1cccc2c1C(=O)c1c(O)c3c(c(O)c1C2=O)C[C@@](O)(C(=O)CO)C[C@@H]3O[C@H]1C[C@H](N)[C@H](O)[C@H](C)O1 [doxorubicin] showed an IC50 ([6]; read-out: IC50 value in AC10 cells (heart toxicity)) of 2.3 ± 0.2 µM.

With NC1=NC(NCCc2ccccc2)=[NH+][Au-]2([NH]1)[c]1ccccc1-c1cccc[n+]12 (centres unmarked) [Compound 1phen] the “reactivity towards GSH / ligand release in words” value [7] was “release of phenformin was detected; also recorded: Only the peak at m/z 206.1622, which corresponds to free phenformin, was observed”, the apoptotic cell population (MDA-MB-231 cells [2]) was “no changes in apoptotic population” and the cytotoxicity in words ([4]; tested cancer cell lines, MTT 72 h) was “least cytotoxic representative of this series”. For the same compound, the IC50 (rat liver TrxR) was 0.0031 ± 0.0015 µM and the “stability, detection of molecular ion [M]+” value [8] was “not detected after 1 hour incubation”.

For O=C1c2cccc[c]2[Au-]([Cl])([Cl])[n+]2ccccc21 [Compound 3, (2-benzoylpyridine)Au^IIICl2], the EC50 [1, 12] was 8.6 ± 1.7 µM, the “RF (Resistance Factor)” value [3] was 1 and the EC50 [3, 12] was 9.1 ± 2.9 µM. The EC50 [4, 12] was 19 ± 3 µM and the “Cellular accumulation MDA-MB-231” value (MDA-MB-231 cells [5]) was 0.14 ± 0.05 nmol Au/mg protein.

For CN(C)C(=N)N=C(N)N [Metformin], the cytotoxicity in words [9] is listed as “devoid of cytotoxicity”, the “anticancer effects in an MDA-MB-231 mammary fat model” value (MDA-MB-231 tumors) is listed as “negligible” and the “redox activity in words” value (Cyclic voltammetry) is listed as “did not show any redox activity”. The EC50 ([1]; Homo sapiens, A2780, 72 h) was greater than 1000 µM, the apoptotic cell population (MDA-MB-231 cells [2]) was “markedly lower” and the EC50 ([3]; Homo sapiens, A2780cisR, 72 h) was greater than 1000 µM. For the same compound, the EC50 ([4]; Homo sapiens, MDA-MB-231, 72 h) was greater than 1000 µM.

CN(C)C1=[NH+][Au-]2([NH]C(N)=N1)[c]1ccccc1-c1cccc[n+]12 (centres unmarked) [1met*] showed an IC50 (rat liver TrxR) of 0.0012 ± 0.0005 µM.

In the case of “[Au^III(2-phenylpyridine)(metformin)]PF6 [Compound 1met]”, the “AMPK and mTOR phosphorylation” value [10] is reported as “dose-dependent increase of AMPK phosphorylation and decrease of mTOR phosphorylation”.

For CN(C)C1=[NH+][Au-]2([NH]C(N)=N1)[c]1ccccc1Cc1cccc[n+]12 (centres unmarked) [Compound 2met], the “reactivity towards GSH / ligand release in words” value [7] was “stable both in the absence and presence of GSH; also recorded: did not significantly change over time”, the IC50 (rat liver TrxR) was 0.00055 ± 9e-05 µM and the “stability, detection of molecular ion [M]+” value [8] was “stable for 24 hours”.

With [Cl][Au-]1([Cl])[c]2ccccc2Cc2cccc[n+]21 [Compound 2, (2-benzylpyridine)Au^IIICl2] the EC50 [1, 12] was 6.5 ± 0.8 µM, the “RF (Resistance Factor)” value [3] was 1 and the EC50 [3, 12] was 7.2 ± 1.5 µM. The EC50 [4, 12] was 7.1 ± 0.4 µM and the “Cellular accumulation MDA-MB-231” value (MDA-MB-231 cells [5]) was 0.14 ± 0.03 nmol Au/mg protein.

With N.N.[Cl][Pt][Cl] [Cisplatin] the EC50 [1, 12] was 0.6 ± 0.05 µM, the apoptotic cell population (MDA-MB-231 cells [2]) was “markedly lower” and the “RF (Resistance Factor)” value [3] was 18. It also gave an EC50 [3, 12] of 11 ± 2 µM, an EC50 [4, 12] of 27 ± 8 µM and an EC50 [11] of 52 ± 7 µM. The EC50 ([6]; read-out: EC50 AC10, MTT assay, exposure time 72 hours) was 10 ± 2 µM.
